In patent publication US20110178104A1, “Anti-Heparin Compounds” (POLYMEDIX INC., priority 2010, published 2011):

Assays:
enoxaparin (ENOX) = test: FXa chromogenic assay (absence of plasma), enoxaparin; conditions: enoxaparin 0.1 μg/mL, absence of plasma
fondaparinux (FONDAPX) = test: FXa chromogenic assay (absence of plasma), fondaparinux; conditions: fondaparinux 0.02 μg/mL, absence of plasma
Unfractionated heparin = test: aPTT clotting assay, UFH 0.4 U/mL in plasma (Example 10); assay type: biochemical; conditions: unfractionated heparin 0.4 U/mL in plasma; aPTT clotting
Protocol: aPTT clotting Assay: Unfractionated heparin was mixed with plasma at a final concentration of 0.4 U/mL (or concentration which increases aPTT time to between 120 and 300 seconds). […] The ACL Elite Hemostasis analyzer (Beckman Coulter™) was used to add aPTT reagent (HemosIL SynthASil) to supplemented plasma. Clotting was initiated by addition of CaCl2 and time to clot was recorded.

enoxaparin = test: FXa amidolytic assay (Example 10), enoxaparin; conditions: read-out: Enox FXa EC50; enoxaparin 0.1 ug/ml; human antithrombin, bovine Factor Xa
fondaparinux = test: FXa amidolytic assay (Example 10), fondaparinux; conditions: read-out: Fondap FXa EC50; fondaparinux 0.02 μg/mL; human antithrombin, bovine Factor Xa
tinzaparin = test: FXa amidolytic assay (Example 10), tinzaparin; conditions: read-out: Tinzap FXa EC50; tinzaparin 0.1 ug/ml; human antithrombin, bovine Factor Xa

Row | ENOX (FXa) EC50 (enoxaparin (ENOX)) | FONDAPX (FXa) EC50 (fondaparinux (FONDAPX)) | EC50 (Unfractionated heparin) | EC50 (enoxaparin) | EC50 (fondaparinux) | EC50 (tinzaparin) | Structure (SMILES)
1 | 1.43 µg/mL | – | – | – | – | – | COc1ccc(NC(=O)[C@H](N)CCCNC(=N)N)cc1C(=O)N[C@H](CCCNC(=N)N)C(=O)Nc1ccc(OC)c(C(=O)N[C@H](CCCNC(=N)N)C(=O)Nc2ccc(OCCNC(=N)N)c(C(=O)N[C@H](CCCNC(=N)N)C(=O)Nc3ccc(OCCNC(=N)N)c(C(N)=O)c3)c2)c1 [Compound 10]
2 | 0.36 µg/mL | 4.26 µg/mL | – | – | – | – | COc1ccc(NC(=O)[C@@H](CCCCNC(=N)N)NC(=O)c2cc(NC(=O)[C@@H](CCCCNC(=N)N)NC(=O)c3cc(NC(=O)[C@@H](CCCCNC(=N)N)NC(=O)c4cc(NC(=O)[C@H](N)CCCCNC(=N)N)ccc4OC)ccc3OC)ccc2OC)cc1C(N)=O [Compound 12]
3 | 0.88 µg/mL | 6.72 µg/mL | – | – | – | – | COc1ccc(NC(=O)[C@@H](C)NC(=O)c2cc(NC(=O)[C@@H](CCCNC(=N)N)NC(=O)c3cc(NC(=O)[C@@H](CCCNC(=N)N)NC(=O)c4cc(NC(=O)[C@H](N)CCCNC(=N)N)ccc4OC)ccc3OC)ccc2OC)cc1C(N)=O [Compound 13]
4 | 2.04 µg/mL | 10.31 µg/mL | – | – | – | – | COc1ccc(NC(=O)[C@@H](CCCNC(=N)N)NC(=O)c2cc(NC(=O)[C@@H](C)NC(=O)c3cc(NC(=O)[C@@H](CCCNC(=N)N)NC(=O)c4cc(NC(=O)[C@H](N)CCCNC(=N)N)ccc4OC)ccc3OC)ccc2OC)cc1C(N)=O [Compound 14]
5 | 0.92 µg/mL | 7.84 µg/mL | – | – | – | – | COc1ccc(NC(=O)[C@@H](CCCNC(=N)N)NC(=O)c2cc(NC(=O)[C@@H](CCCNC(=N)N)NC(=O)c3cc(NC(=O)[C@@H](C)NC(=O)c4cc(NC(=O)[C@H](N)CCCNC(=N)N)ccc4OC)ccc3OC)ccc2OC)cc1C(N)=O [Compound 15]
6 | 0.57 µg/mL | – | – | – | – | – | COc1ccc(NC(=O)[C@H](N)CCCNC(=N)N)cc1C(=O)N[C@H](CCCNC(=N)N)C(=O)Nc1ccc(OC)c(C(=O)N[C@H](CCCNC(=N)N)C(=O)Nc2ccc(OC)c(C(=O)N[C@H](CCCNC(=N)N)C(=O)Nc3ccc(OCCNC(=N)N)c(C(N)=O)c3)c2)c1 [Compound 18]
7 | 8.62 µg/mL | 11.10 µg/mL | – | – | – | – | N=C(N)NCCC[C@@H](N)C(=O)Nc1cccc(C(=O)N[C@H](CCCNC(=N)N)C(=O)Nc2cccc(C(=O)N[C@H](CCCNC(=N)N)C(=O)Nc3cccc(C(=O)N[C@H](CCCNC(=N)N)C(=O)Nc4cccc(C(N)=O)c4)c3)c2)c1 [Compound 20]
8 | 0.65 µg/mL | 8.84 µg/mL | – | – | – | – | COc1ccc(NC(=O)[C@@H](CCCNC(=N)N)NC(=O)c2cccc(NC(=O)[C@H](N)CCCNC(=N)N)c2)cc1C(=O)N[C@H](CCCNC(=N)N)C(=O)Nc1ccc(OC)c(C(=O)N[C@H](CCCNC(=N)N)C(=O)Nc2cccc(C(N)=O)c2)c1 [Compound 21]
9 | 0.56 µg/mL | 7.63 µg/mL | – | – | – | – | COc1ccc(NC(=O)[C@@H](CCCNC(=N)N)NC(=O)c2cc(NC(=O)[C@@H](CCCNC(=N)N)NC(=O)c3cccc(NC(=O)[C@@H](CCCNC(=N)N)NC(=O)c4cccc(NC(=O)[C@H](N)CCCNC(=N)N)c4)c3)ccc2OC)cc1C(N)=O [Compound 22]
10 | 3.68 µg/mL | 18.01 µg/mL | – | – | – | – | N=C(N)NCCC[C@@H](N)C(=O)Nc1ccc(F)c(C(=O)N[C@H](CCCNC(=N)N)C(=O)Nc2ccc(F)c(C(=O)N[C@H](CCCNC(=N)N)C(=O)Nc3ccc(F)c(C(=O)N[C@H](CCCNC(=N)N)C(=O)Nc4ccc(F)c(C(N)=O)c4)c3)c2)c1 [Compound 23]
11 | 0.47 µg/mL | 9.23 µg/mL | – | – | – | – | COc1ccc(NC(=O)[C@@H](CCCNC(=N)N)NC(=O)c2cc(NC(=O)[C@H](N)CCCNC(=N)N)ccc2F)cc1C(=O)N[C@H](CCCNC(=N)N)C(=O)Nc1ccc(OC)c(C(=O)N[C@H](CCCNC(=N)N)C(=O)Nc2ccc(F)c(C(N)=O)c2)c1 [Compound 24]
12 | 0.72 µg/mL | – | – | – | – | – | N=C(N)NCCC[C@@H](N)C(=O)Nc1ccc(OCCNC(=N)N)c(C(=O)N[C@H](CCCNC(=N)N)C(=O)Nc2ccc(OCCNC(=N)N)c(C(=O)N[C@H](CCCNC(=N)N)C(=O)Nc3ccc(OCCNC(=N)N)c(C(=O)N[C@H](CCCNC(=N)N)C(=O)Nc4ccc(OCCNC(=N)N)c(C(N)=O)c4)c3)c2)c1 [Compound 31]
13 | 16.70 µg/mL | – | – | – | – | – | COc1ccc(NC(=O)[C@H](CCCN)NC(=O)c2cc(NC(=O)[C@H](CCCN)NC(=O)c3cc(NC(=O)[C@H](CCCN)NC(=O)c4cc(NC(=O)[C@@H](N)CCCN)ccc4OC)ccc3OC)ccc2OC)cc1C(N)=O [Compound 89]
14 | – | – | 7.06 µM | 4.65 µM | 14.8 µM | 2.77 µM | COc1cc(OC)c(C(=O)N[C@H]2CC[C@@H](NC(=O)c3cc(C(N)=O)c(OCCCCCN)cc3OCCCCCN)CC2)cc1C(=O)N[C@H]1CC[C@@H](N=C(N(C)C)N(C)C)CC1 [Compound 413]
15 | – | – | > 10 µM | 3.32 µM | > 10 µM | 2.06 µM | COc1cc(OC)c(C(=O)N[C@H]2CC[C@@H](NC(=O)c3cc(C(=O)NCCN)c(OCCCCCN)cc3OCCCCCN)CC2)cc1C(=O)N[C@H]1CC[C@@H](N=C(N(C)C)N(C)C)CC1 [Compound 414]
16 | – | – | > 10 µM | > 5 µM | > 10 µM | > 5 µM | COc1cc(OC)c(C(=O)N[C@H]2CC[C@@H](NC(=O)c3cc(C(=O)N4CCC(CN)CC4)c(OC)cc3OC)CC2)cc1C(=O)N[C@H]1CC[C@@H](NC(=O)c2cc(C(=O)N3CCC(CN)CC3)c(OC)cc2OC)CC1 [Compound 415]
17 | – | – | > 10 µM | > 5 µM | > 10 µM | > 5 µM | COc1cc(OC)c(C(=O)N[C@H]2CC[C@@H](NC(=O)c3cc(C(=O)N4CCC(CN)CC4)c(OC)cc3OC)CC2)cc1C(=O)N[C@H]1CC[C@@H](N=C(N(C)C)N(C)C)CC1 [Compound 416]
18 | – | – | 2.22 µM | 0.495 µM | 1.11 µM | 0.2 µM | COc1cc(OC)c(C(=O)N[C@H]2CC[C@@H](NC(=O)c3cc(C(=O)N[C@H]4CC[C@@H](NC(=O)c5cc(C(=O)NC6CCNCC6)c(OC)cc5OC)CC4)c(OC)cc3OC)CC2)cc1C(=O)NC1CCNCC1 [Compound 417]
19 | – | – | > 10 µM | > 5 µM | > 10 µM | > 5 µM | COc1cc(OC)c(C(=O)N[C@H]2CC[C@@H](NC(=O)c3cc(C(=O)N[C@H]4CC[C@@H](N=C(N(C)C)N(C)C)CC4)c(OC)cc3OC)CC2)cc1C(=O)NC1CCNCC1 [Compound 418]
20 | – | – | > 10 µM | > 5 µM | > 10 µM | > 5 µM | COc1cc(OC)c(C(=O)N[C@H]2CC[C@@H](NC(=O)c3cc(C(=O)N4CCC(N)CC4)c(OC)cc3OC)CC2)cc1C(=O)N[C@H]1CC[C@@H](NC(=O)c2cc(C(=O)N3CCC(N)CC3)c(OC)cc2OC)CC1 [Compound 419]
21 | – | – | > 10 µM | > 5 µM | > 10 µM | > 5 µM | COc1cc(OC)c(C(=O)N[C@H]2CC[C@@H](NC(=O)c3cc(C(=O)N4CCC(N)CC4)c(OC)cc3OC)CC2)cc1C(=O)N[C@H]1CC[C@@H](N=C(N(C)C)N(C)C)CC1 [Compound 420]
22 | – | – | 1.2 µM | 0.238 µM | 0.159 µM | 0.22 µM | COc1cc(OC)c(C(=O)Nc2ccc(NC(=O)c3cc(C(=O)Nc4ccc(NC(=O)c5cc(C(=O)NCCN)c(OC)cc5OC)cc4)c(OC)cc3OC)cc2)cc1C(=O)NCCN [Compound 421]
23 | – | – | 1.25 µM | 0.608 µM | 1.89 µM | 0.426 µM | COc1cc(OC)c(C(=O)Nc2ccc(NC(=O)c3cc(C(=O)Nc4ccc(N=C(N(C)C)N(C)C)cc4)c(OC)cc3OC)cc2)cc1C(=O)NCCN [Compound 422]
24 | – | – | 3.15 µM | 1.18 µM | > 10 µM | 0.296 µM | COc1cc(OC)c(C(=O)N[C@H]2CC[C@@H](NC(=O)c3cc(C(=O)N4CCC(CN)CC4)c(OCCCCCN)cc3OCCCCCN)CC2)cc1C(=O)N[C@H]1CC[C@@H](NC(=O)c2cc(C(=O)N3CCC(CN)CC3)c(OCCCCCN)cc2OCCCCCN)CC1 [Compound 423]
25 | – | – | > 10 µM | > 5 µM | > 10 µM | > 5 µM | COc1cc(OC)c(C(=O)N[C@H]2CC[C@@H](NC(=O)c3cc(C(=O)N4CCC(CN)CC4)c(OCCCCCN)cc3OCCCCCN)CC2)cc1C(=O)N[C@H]1CC[C@@H](N=C(N(C)C)N(C)C)CC1 [Compound 424]
26 | – | – | 0.429 µM | 0.088 µM | 0.502 µM | 0.062 µM | COc1cc(OC)c(C(=O)N[C@H]2CC[C@@H](NC(=O)c3cc(C(=O)NC4CCNCC4)c(OCCCCCN)cc3OCCCCCN)CC2)cc1C(=O)N[C@H]1CC[C@@H](NC(=O)c2cc(C(=O)NC3CCNCC3)c(OCCCCCN)cc2OCCCCCN)CC1 [Compound 425]
27 | – | – | 11.3 µM | 2.75 µM | > 10 µM | 0.53 µM | COc1cc(OC)c(C(=O)N[C@H]2CC[C@@H](NC(=O)c3cc(C(=O)N4CCC(N)CC4)c(OCCCCCN)cc3OCCCCCN)CC2)cc1C(=O)N[C@H]1CC[C@@H](NC(=O)c2cc(C(=O)N3CCC(N)CC3)c(OCCCCCN)cc2OCCCCCN)CC1 [Compound 426]
28 | – | – | > 10 µM | > 5 µM | > 10 µM | > 5 µM | COc1ccc(NC(=O)[C@H](CCCCN)NC(=O)c2cc(C(=O)N[C@@H](CCCCN)C(=O)Nc3ccc(OC)c(C(=O)N[C@@H](CCCCN)C(N)=O)c3)c(OC)cc2OC)cc1C(=O)N[C@@H](CCCCN)C(N)=O [Compound 427]
